| Structure (SMILES) | melting point |
| --- | --- |
| COc1ccc2c(c1)cc(C(OC)(c1ccccc1)c1cc3cc(OC)ccc3n1S(=O)(=O)c1ccccc1)n2S(=O)(=O)c1ccccc1 [Example 7, Di-(5-Methyloxy-1-phenylsulphonylindol-2-yl)phenyl-methyloxymethane] | 100 to 101 °C |
| COc1ccc2cc(C(O)c3cc4ccccc4n3S(=O)(=O)c3ccccc3)n(S(=O)(=O)c3ccccc3)c2c1 (centres unmarked) [Example 11, 6-Methoxy-1-phenylsulphonyl-1H-2-indolyl(1-phenylsulphonyl-1H-2-indolyl)methanol] | 180 °C |
| COc1ccc2[nH]c(C(=O)c3cc4cc(OC)ccc4[nH]3)cc2c1 [Example 21, Bis(5-methoxyindol-2-yl)-1-methanone] | 202 to 204 °C |
| COc1cccc2cc(C(=O)c3cc4ccccc4[nH]3)[nH]c12 [Example 30, 7-Methoxy-1H-2-indolyl(1H-2-indolyl)methanone] | 151 °C |
| COc1ccc2cc(C(=O)c3cc4ccccc4n3S(=O)(=O)c3ccccc3)n(S(=O)(=O)c3ccccc3)c2c1 [Example 31, 6-Methoxy-1-phenylsulphonyl-1H-2-indolyl(1-phenylsulphonyl-1H-2-indolyl)methanone] | 184 to 186 °C |
| COc1ccc2cc(C(=O)c3cc4ccccc4[nH]3)[nH]c2c1 [Example 32, 6-Methoxy-1H-2-indolyl(1H-2-indolyl)methanone] | 184 to 186 °C |
| O=C(c1cc2ccccc2[nH]1)c1cc2cc(O)ccc2[nH]1 [Example 43, 5-Hydroxy-1H-2-indolyl(1H-2-indolyl)methanone] | > 220 °C |
| O=C(c1cc2ccccc2[nH]1)c1cc2cc(OCCCCCI)ccc2[nH]1 [Example 50, 5-(5-Iodopentyloxy)-1H-2-indolyl(1H-2-indolyl)methanone] | 127 to 130 °C |
| COc1ccc2c(c1)cc(Cc1cc3cc(OC)ccc3n1S(=O)(=O)c1ccccc1)n2S(=O)(=O)c1ccccc1 [Example 71, Bis(5-methoxy-N-phenylsulphonylindol-2-yl)methane] | 159 to 160 °C |
| COc1ccc2[nH]c(C(=O)c3cc4ccccc4[nH]3)cc2c1 [Example 75, (5-Methoxyindol-2-yl)-(indol-2-yl)methanone] | 112 °C |
| COc1ccc2[nH]c3c(c2c1)C1=C(C(=O)NC1=O)c1c([nH]c2ccccc12)C3 [Example 82, 1,2,3,8,9,10-Hexahydro-5-methoxyindolo[3′,2′:5,6]-pyrrolo[3′,4′:3,4]-cyclohepta[b]indole-1,3-dione] | > 350 °C |
| CN1C(=O)C2=C(C1=O)c1c([nH]c3ccccc13)CCc1[nH]c3ccccc3c12 [Example 84, 1,2,3,8,9,10,11-Heptahydro-2-methylindolo[3′,2′:5,6]-pyrrolo[3′,4′:3,4]-cycloocta[b]indole-1,3-dione] | > 350 °C |
| O=C1C2=C(C(=O)N1COCc1ccccc1)c1c([nH]c3ccccc13)Cc1[nH]c3ccccc3c12 [Example 85, 2-Benzyloxymethyl-1,2,3,8,9,10-hexahydroindolo-[3′,2′:5,6]-pyrrolo[3′,4′:3,4]-cyclohepta[b]indole-1,3-dione] | > 350 °C |
| CN(C)CCn1c2c(c3ccccc31)C1=C(C(=O)N(COCc3ccccc3)C1=O)c1c([nH]c3ccccc13)C2 [Example 88, 2-Benzyloxymethyl-1,2,3,8,9,10-hexahydro-8-[2-(N,N-di-methylamino)ethyl]indolo[3′,2′:5,6]pyrrolo[3′,4′:3,4]-cyclohepta[b]indole-1,3-dione] | 164 to 165 °C |
| CN1C(=O)C(Br)=C(c2c(CCc3cc4ccccc4[nH]3)[nH]c3ccccc23)C1=O [Example 91, 3-Bromo-4-(2-(2-(1H-2-indolyl)ethyl)-1H-3-indolyl)-1-methyl-2,5-dihydro-1H-pyrrole-2,5-dione] | 169 °C |
| CN1C(=O)C(Br)=C(c2c(CCCCCc3[nH]c4ccccc4c3C3=C(Br)C(=O)N(C)C3=O)[nH]c3ccccc23)C1=O [Example 112, 3-Bromo-4-(2-(5-(3-(4-bromo-1-methyl-2,5-dioxo-2,5-dihydro-1H-3-pyrrolyl)-1H-2-indolyl)pentyl)-1H-3-indolyl)-1-methyl-2,5-dihydro-1H-pyrrole-2,5-dione] | 137 °C (dec.) |
| O=C1NC(=O)C(c2c(CCCc3[nH]c4ccccc4c3C3=C(Br)C(=O)NC3=O)[nH]c3ccccc23)=C1Br [Example 113, 3-Bromo-4-(2-(3-(3-(4-bromo-2,5-dioxo-2,5-dihydro-1H-3-pyrrolyl)-1H-2-indolyl)propyl)-1H-3-indolyl)-2,5-dihydro-1H-pyrrole-2,5-dione] | > 350 °C |
| O=C1NC(=O)C(c2c(CCCCCc3[nH]c4ccccc4c3C3=C(Br)C(=O)NC3=O)[nH]c3ccccc23)=C1Br [Example 114, 3-Bromo-4-(2-(5-(3-(4-bromo-2,5-dioxo-2,5-dihydro-1H-3-pyrrolyl)-1H-2-indolyl)pentyl)-1H-3-indolyl)-2,5-dihydro-1H-pyrrole-2,5-dione] | > 350 °C (dec.) |
| O=C1NC(=O)C(c2c(CCCCCCCCc3[nH]c4ccccc4c3C3=C(Br)C(=O)NC3=O)[nH]c3ccccc23)=C1Br [Example 115, 3-Bromo-4-(2-(8-(3-(4-bromo-2,5-dioxo-2,5-dihydro-1H-3-pyrrolyl)-1H-2-indolyl)octyl)-1H-3-indolyl)-2,5-dihydro-1H-pyrrole-2,5-dione] | 180 °C (dec.) |
| CN1C(=O)C(Br)=C(c2c(CCc3[nH]c4ccccc4c3C3=C(Br)C(=O)N(C)C3=O)[nH]c3ccccc23)C1=O [Example 116, 3-Bromo-4-(2-(2-(3-(4-bromo-1-methyl-2,5-dioxo-2,5-dihydro-1H-3-pyrrolyl)-1H-2-indolyl)ethyl)-1H-3-indolyl)-1-methyl-2,5-dihydro-1H-pyrrole-2,5-dione] | 179 °C |

Next, values leading:

| melting point | Structure (SMILES) |
| --- | --- |
| 116 to 117 °C | CN(C)Cc1c(C(O)c2cc3ccccc3n2S(=O)(=O)c2ccccc2)n(S(=O)(=O)c2ccccc2)c2ccccc12 (centres unmarked) [Example 8, (3-Dimethylaminomethyl-1-phenylsulphonylindol-2-yl)(1-phenylsulphonylindol-2-yl)methan-1-ol] |
| 148 to 150 °C | COc1cccc2cc(C(O)c3cc4ccccc4n3S(=O)(=O)c3ccccc3)n(S(=O)(=O)c3ccccc3)c12 (centres unmarked) [Example 12, 7-Methoxy-1-phenylsulphonyl-1H-2-indolyl(1-phenylsulphonyl-1H-2-indolyl)methanol] |
| 205 °C | COc1ccc2c(c1)cc(C(=O)c1cc3ccccc3n1S(=O)(=O)c1ccccc1)n2S(=O)(=O)c1ccccc1 [Example 17, (5-Methoxy-N-phenylsulphonylindol-2-yl)-(N-phenylsulphonylindol-2-yl)methan-1-one] |
| 200 °C | COc1ccc2[nH]c(C(=O)c3cc4ccccc4s3)cc2c1 [Example 28, Benzo[b]thiophen-2-yl(5-methoxy-1H-2-indolyl)-1-methanone] |
| 129 to 130 °C | COc1cccc2cc(C(=O)c3cc4ccccc4n3S(=O)(=O)c3ccccc3)n(S(=O)(=O)c3ccccc3)c12 [Example 29, 7-Methoxy-1-phenylsulphonyl-1H-2-indolyl(1-phenyl-sulphonyl-1H-2-indolyl)methanone] |
| 199 to 201 °C | O=C(c1cc2ccccc2[nH]1)c1cc2cc(OCc3ccccc3)ccc2[nH]1 [Example 42, 5-Benzyloxy-1H-2-indolyl(1H-2-indolyl)methanone] |
| 168 to 169 °C | CCOc1ccc2[nH]c(C(=O)c3cc4ccccc4[nH]3)cc2c1 [Example 44, 5-Ethoxy-1H-2-indolyl(1H-2-indolyl)methanone] |
| 110 to 113 °C | O=C(c1cc2ccccc2[nH]1)c1cc2cc(OCCCCI)ccc2[nH]1 [Example 47, 5-(4-Iodobutyloxy)-1H-2-indolyl(1H-2-indolyl)methanone] |
| 185 °C (dec.) | O=C(c1cc2ccccc2[nH]1)c1cc2cc(OCC3CCCCC3)ccc2[nH]1 [Example 49, 5-Cyclohexylmethyloxy-1H-2-indolyl(1H-2-indolyl)-methanone] |
| 215 to 217 °C | CN(C)CC(=O)Oc1ccc2[nH]c(C(=O)c3cc4ccccc4[nH]3)cc2c1 [Example 56] |
| > 230 °C | CCC(=O)Oc1ccc2[nH]c(C(=O)c3cc4ccccc4[nH]3)cc2c1 [Example 57] |
| 98 to 100 °C | COc1ccc2c(c1)cc(Cc1cc3ccccc3n1S(=O)(=O)c1ccccc1)n2S(=O)(=O)c1ccccc1 [Example 72, (5-Methoxy-N-phenylsulphonylindol-2-yl)-(N-phenyl-sulphonylindol-2-yl)methane] |
| 168 to 170 °C | COc1ccc2c(c1)cc(Cc1cc3cccc(OC)c3n1S(=O)(=O)c1ccccc1)n2S(=O)(=O)c1ccccc1 [Example 73, (5-Methoxy-N-phenylsulphonylindol-2-yl)-(7-methoxy-N-phenylsulphonylindol-2-yl)methane] |
| > 350 °C | CN(C)CCn1c2c(c3ccccc31)C1=C(C(=O)OC1=O)c1c([nH]c3ccccc13)C2 [Example 87, 3,8,9,10-Tetrahydro-8-[2-(N,N-dimethylamino)ethyl]-1H-indolo[3′,2′:5,6]furo[3′,4′:3,4]cyclohepta[b]indole-1,3-dione] |
| 213 to 214 °C | CN(C)CCn1c2c(c3ccccc31)C1=C(C(=O)NC1=O)c1c([nH]c3ccccc13)C2 [Example 90, 1,2,3,8,9,10-Hexahydro-8-[2-(N,N-dimethylamino)ethyl]-indolo[3′,2′:5,6]pyrrolo[3′,4′:3,4]cyclohepta[b]indole-1,3-dione] |
| 165 °C (dec.) | CN1C(=O)C(Br)=C(c2c(CCCCc3cc4ccccc4[nH]3)[nH]c3ccccc23)C1=O [Example 92, 3-Bromo-4-(2-(4-(1H-2-indolyl)butyl)-1H-3-indolyl)-1-methyl-2,5-dihydro-1H-pyrrole-2,5-dione] |
| 125 °C (dec.) | CN1C(=O)C(Br)=C(c2c(CCCCCc3cc4ccccc4[nH]3)[nH]c3ccccc23)C1=O [Example 93, 3-Bromo-4-(2-(5-(1H-2-indolyl)pentyl)-1H-3-indolyl)-1-methyl-2,5-dihydro-1H-pyrrole-2,5-dione] |
| 297 to 299 °C | O=C(c1c[nH]c2ccccc12)c1c[nH]c2ccccc12 [Example 94, Bis(indol-3-yl)methanone] |

— patent publication US6812243B2, “Indole derivatives and their use for the treatment of malignant and other diseases based on pathological proliferation” (Zentaris AG, priority 1998, dated 2004)
